Test results taken from US6251903A, “Alkyl, azido, alkoxy, and fluoro-substituted and fused quinoxalinediones and the use thereof as glycine receptor antagonist” (priority 2000, dated 2001).
Entries after “also recorded” stand apart in the source; their conditions may differ. Like-named read-outs stand apart in the source and are kept apart here.

Legend:
[1] = test system: glycine binding site of the NMDA receptor; conditions: literature, cited from earlier work
[2] = cited from earlier work
neurons = conditions: literature, cited from earlier work
[3] = test system: non-NMDA glutamate receptors; conditions: literature, cited from earlier work
animals = conditions: literature; cited from earlier work
[4] = target: T1, glycine binding site of the NMDA receptor (Rattus norvegicus, UniProt P35439); assay: 1 μM glycine-stimulated [3H]-MK801 binding assay, brain membrane homogenates
T1 construct: rat brain membrane homogenates that are enriched in NMDA receptors; tissue Pel-Freez, Rogers, Arkansas (frozen rat brains); host or cells: rat brain membrane homogenate
Protocol: This assay takes advantage of the dependence of the binding of [^3 H]-MK801 to the PCP receptor inside the pore of the NMDA channel on the presence of both glutamate and glycine. In the absence of glycine, but in the presence of glutamate, [^3 H]-MK801 cannot bind effectively to the PCP receptor because the NMDA channel remains closed and access of [^3 H]-MK801 to the PCP receptor inside the closed channel pore is severely restted.
The assay is conducted using rat brain membrane homogenates that are enriched in NMDA receptors. The membranes are prepared as follows. Frozen rat brains (obtained from Pel-Freez, Rogers, Arkansas) are homogenized in 15 volumes (w/v) of ice cold 0.32 M sucrose. The homogenate is spun at 1,000×g for ten minutes. The supernatant is collected and spun for 20 minutes at 44,000×g. The pellet is suspended in 15 volumes of water (relative to original brain weight). The homogenate is again spun at 44,000×g for twenty minutes. The pellet is resuspended in 5 volumes of water and the suspension is freeze-thawed 2 times. After the final thaw cycle, the suspension is brought to 15 volumes with water and spun at 44,000×g for twenty minutes. The pellet is resuspended in 5 volumes of ice-cold 10 mM HEPES, and is titrated to pH 7.4 with KOH containing 0.04% Triton X-100. Membranes are incubated with the Triton/HEPES buffer at 37° C. for 15 minutes. The volume is then brought to 15 with ice-cold 10 mM HEPES, pH 7.4, and spun/washed three times with spins of 44,000×g between washes. The final pellet is suspended in three volumes of 50 mM HEPES, pH 7.4, and the protein concentration is determined with a standard dye-binding protein assay (Bio-Rad, Richmond, Calif.). The suspension is stored at -80° C. until used. Only HPLC grade water is used for all buffers and suspensions/washings. The extensive washings are necessary to remove as much endogenous glycine from the membrane preparation as possible.
Nonspecific binding is defined as the difference in binding that occurs in the absence or presence of-PCP (final concentration: 100 μM). To determine the effect of 1 μM glycine on the binding of [^3 H]-MK801, bound radioactivity in the presence of 10 μM glutamate alone (final concentration) is subtracted from the bound radioactivity in the presence of both 10 μM glutamate and 1 μM glycine (final concentration). A 500 nM concentration (final) of 5,7-dichlorokynurenic (DCK) acid is added to all assay tubes. This concentration of the glycine antagonist DCK "buffers" most of the residual endogenous glycine that is not removed by the extensive washing steps that are carried out during the membrane preparation procedure.
The assays are incubated for 120 minutes at room temperature after which time the membrane-bound radioactivity is isolated from the free radioactivity by vacuum filtration through Whatman glass fiber filters that had been pretreated with 0.3% polyethyleneimine. Filtration is accomplished using a Brandel,48 well cell harvester. Filtered membranes are washed three times with 3 mL each of ice cold buffer. Filters are transferred to scintillation vials and 5 mL of scintillation cocktail is added. The vials are shaken overnight and the radioactivity is counted by liquid scintillation spectroscopy. The assays are done in triplicate and all experiments are conducted at least three times.

glycine binding site = glycine binding site (Rattus norvegicus, UniProt P35439); assay: affinity for the glycine binding site / glycine/NMDA receptor (Ki; method not stated); conditions: for times less active than 6,7-dichloro-5-nitro-1,4-dihydroquinoxaline-2,3-dione at the glycine/NMDA receptor: from Ki
From the text: The binding affinities of quinoxaline-2,3-diones at NMDA receptor glycine sites also were estimated by electrophysiological assays with either cloned rat NMDA receptors expressed in Xenopus oocytes, or non-NMDA receptors expressed in oocytes by whole rat brain poly(A)^+ RNA. […] For NMDA receptors Ki values were approximated by averaging values at three subtype combinations (NR1A/NR2A, NR1A/NR2B, and NR1A/NR2C).

[5] = penetration of the blood/brain barrier, access to the central nervous system; type: in vivo; conditions: inferred from Ki and MES ED50
mice = assay: anticonvulsant activity in maximum electroshock seizure (MES) experiments in mice; type: in vivo, male Swiss/Webster mice; conditions: for ED50 / ED100: Mus musculus; for ED100 / ED50 (MES) / IV peak of action: Table IV
Protocol: The seizure stimulus parameters were: 50 mA, 60 Hz, rectangular pulse, width 0.8 msec, duration 200 msec. Tonic hind limb extension observed after application of the electrical stimulus was recorded as occurrence of seizure. The drug was applied i.v. as an aqueous Tris (Tromethamine) solution.

[6] = listed as 6,7-dinitroquinoxaline-2,3-dione
[7] = Table II, footnote b, from binding assays, read-out: Ki
[8] = read-out: Ki, affinity for the glycine/NMDA receptor
[9] = iv, Table III, i.v. injection, read-out: ED50 (MES)
[10] = route not stated, read-out: ED50 as an anticonvulsant in the MES experiment in mice

NC1CCN(O)C1=O (racemic) [HA-966]
glycine site antagonism or affinity (words) [1]: partial agonist with only micromolar affinity for the glycine binding site
penetration of the blood/brain barrier (words) ([2]; literature): sufficiently penetrates the blood/brain barrier

NS(=O)(=O)c1cccc2c1c([N+](=O)[O-])cc1nc(O)c(O)nc12 [2,3-dihydroxy-6-nitro-7-sulfamoyl-benzo (F) quinoxaline]
neuroprotective efficacy (neurons): neuroprotective in cerebral ischemia models
antagonism at kainate / AMPA / non-NMDA receptors [3]: AMPA selective

O=C(O)c1cc(O)c2c(Cl)cc(Cl)cc2n1 [5,7-dichlorokynurenic acid]
glycine site antagonism or affinity (words) [1]: relatively high receptor binding affinity in vitro
penetration of the blood/brain barrier (words) ([2]; in vivo): cannot penetrate the blood/brain barrier

O=c1[nH]c2cc([N+](=O)[O-])cc([N+](=O)[O-])c2[nH]c1=O [5,7-dinitro-1,4-dihydroquinoxaline-2,3-dione]
glycine site antagonism or affinity (words) [1]: potent-antagonist of the strychnine insensitive glycine receptor
penetration of the blood/brain barrier (words) ([2]; literature): poor access to the central nervous system
in vivo activity (animals): has anticonvulsant properties

O=c1[nH]c2cc([N+](=O)[O-])c([N+](=O)[O-])cc2[nH]c1=O [6,7-dinitro-1,4-dihydroquinoxaline-2,3-dione]
glycine site antagonism or affinity (words) [1]: can antagonize the responses to L-glutamate by interacting with the glycine recognition sites; also recorded: inhibit [^3 H] glycine binding to the strychnine-insensitive glycine binding sites
glycine site antagonism or affinity (words) [1, 6]: glycine antagonists
neuroprotective efficacy (neurons): neuroprotective activity
neuroprotective efficacy (neurons; [6]): neuroprotective in vitro
antagonism at kainate / AMPA / non-NMDA receptors [3]: more potent antagonists of kainate than glycine; also recorded: potent non-NMDA glutamate receptor antagonists
antagonism at kainate / AMPA / non-NMDA receptors [3, 6]: AMPA
penetration of the blood/brain barrier (words) ([2]; literature, listed as DNQX): poor access to the central nervous system
in vivo activity (animals): antagonize responses mediated by NMDA-associated glycine recognition sites in vivo

O=C(O)[C@@H]1C[C@H](CP(=O)(O)O)CCN1 [CGS 19755]
neuroprotective efficacy (neurons): have neuroprotective efficacy

Cc1c([N+](=O)[O-])c([N+](=O)[O-])c(Cl)c2[nH]c(=O)c(=O)[nH]c12 [Cl NO2 NO2 Me, 5-Chloro-6,7-dinitro-8-methyl-2,3-quinoxalinedione]
Ki [4]: 3800 nM

CCc1cc2[nH]c(=O)c(=O)[nH]c2cc1Cl [H Cl Et H, 6-Chloro-7-ethyl-1,4-dihydroquinoxaline-2,3-dione]
Ki [4]: 730 nM

CCc1cc2[nH]c(=O)c(=O)[nH]c2cc1CC [H Et Et H, 6,7-Diethyl-1,4-dihydroquinoxaline-2,3-dione]
Ki [4]: 800 nM

Cc1ccc2[nH]c(=O)c(=O)[nH]c2c1 [H Me H H, 6-Methyl-1,4-dihydro-2,3-quinoxalinedione]
Ki [4, 7]: 9000 nM

[N-]=[N+]=Nc1ccc2[nH]c(=O)c(=O)[nH]c2c1 [H N3 H H, 6-azidol-1,4-dihydroquinoxaline-2,3-dione]
Ki [4, 7]: 910 nM
binding to the glycine binding site (glycine binding site; Table I, compared with other 6-substituted derivatives): quite favorably binds
Ki (glycine binding site; Table I, read-out: Ki): 210 nM

O=C(O)C1CC2CC(CP(=O)(O)O)CCC2CN1 (stereo not drawn) [LY274614]
neuroprotective efficacy (neurons): have neuroprotective efficacy

Cc1c(Cl)cc2nc(O)c(O)nc2c1N [NH2 Me Cl H, 5-Amino-7-chloro-1,4-dihydro-6-methylquinoxaline-2,3-dione]
Ki [4]: 500 nM

CCc1cc2nc(O)c(O)nc2c([N+](=O)[O-])c1Cl [NO2 Cl Et H, 6-Chloro-7-ethyl-5-nitro-1,4-dihydroquinoxaline-2,3-dione]
Ki [4]: 40 nM

CCc1c(Cl)cc2nc(O)c(O)nc2c1[N+](=O)[O-] [NO2 Et Cl H, 7-Chloro-6-ethyl-5-nitro-1,4-dihydroquinoxaline-2,3-dione]
Ki [4]: 200 nM

O=c1[nH]c2c(F)c(Cl)c(F)c([N+](=O)[O-])c2[nH]c1=O [NO2 F Cl F, 7-Chloro-6,8-difluoro-5-nitro-1,4-dihydroquinoxaline-2,3-dione]
times better in crossing the blood brain barrier than 6,7-dichloro-5-nitro-1,4-dihydroquinoxaline-2,3-dione [5]: about 100 times
times less active than 6,7-dichloro-5-nitro-1,4-dihydroquinoxaline-2,3-dione at the glycine/NMDA receptor (glycine binding site): about 50 times
Ki (glycine binding site; [8]): 170 nM
ED50 (mice; [9]): 2 to 3 mg/kg
ED100 (mice; i.v.): 5 mg/kg
ED50 (mice; [10]): 2 to 3 mg/kg
ED50 (MES) (mice; i.v.): 2 to 3 mg/kg
IV peak of action (mice; i.v.): 2 to 5 min
% protection after 60 min. (mice; i.v., 5 mg/kg): 50%

O=c1[nH]c2cc(F)c(F)c([N+](=O)[O-])c2[nH]c1=O [NO2 F F H, 6,7-Difluoro-5-nitro-1,4-dihydro-2,3-quinoxalinedione]
times better in crossing the blood brain barrier than 6,7-dichloro-5-nitro-1,4-dihydroquinoxaline-2,3-dione [5]: about 100 times
times less active than 6,7-dichloro-5-nitro-1,4-dihydroquinoxaline-2,3-dione at the glycine/NMDA receptor (glycine binding site): more than 20 times
Ki (glycine binding site; [8]): 87 nM
ED50 (mice; [9]): 0.7 to 0.8 mg/kg
ED100 (mice; i.v.): 2.5 mg/kg
ED50 (mice; [10]): 0.7 to 0.8 mg/kg
ED50 (MES) (mice; i.v.): 0.7 to 0.8 mg/kg
IV peak of action (mice; i.v.): 1 min
% protection after 60 min. (mice; i.v., 2.5 mg/kg): 0%
protection against MES after 60 min. (mice; i.v., after 60 min): no more protection was observed

Cc1c(Br)cc2nc(O)c(O)nc2c1[N+](=O)[O-] [NO2 Me Br H, 7-Bromo-6-methyl-5-nitro-1,4-dihydroquinoxaline-2,3-dione]
Ki [4]: 40 nM

O=[N+]([O-])c1c(OCCCc2ccccc2)c(F)cc2nc(O)c(O)nc12 [NO2 O(CH2)3 Ph F H, 7-Fluoro-6(3-phenylpropoxy)-5-nitro-1,4-dihydroquinoxaline-2,3-dione]
Ki [4]: 6700 nM

CCCCOc1c(F)cc2nc(O)c(O)nc2c1[N+](=O)[O-] [NO2 OBu-n F H, 7-Fluoro-6-(n-butoxy)-5-nitro-1,4-dihydroquinoxaline-2,3-dione]
Ki [4]: 6500 nM

COc1c(Cl)cc2[nH]c(=O)c(=O)[nH]c2c1[N+](=O)[O-] [NO2 OMe Cl H, 7-Chloro-6-methoxy-5-nitro-1,4-dihydroquinoxaline-2,3-dione]
Ki [4]: 450 nM

c1ccc(C2(N3CCCCC3)CCCCC2)cc1 [PCP, phencyclidine]
neuroprotective efficacy (neurons): have neuroprotective efficacy both in vitro and in vivo

COc1ccc2c(c1)[C@]13CCCC[C@@H]1[C@H](C2)N(C)CC3 [dextromethorphan]
neuroprotective efficacy (neurons): have neuroprotective efficacy both in vitro and in vivo

O=C(O)c1cc2ccccc2[nH]1 [indole-2-carboxylic acid]
glycine site antagonism or affinity (words) [1]: relatively high receptor binding affinity in vitro
penetration of the blood/brain barrier (words) ([2]; literature): cannot penetrate the blood/brain barrier

CNC1(c2ccccc2Cl)CCCCC1=O (stereo not drawn) [ketamine]
neuroprotective efficacy (neurons): have neuroprotective efficacy both in vitro and in vivo
